Here are results for 2 molecules from patent US6204002A, “Gangliosides having fluorescent-tagged ceramide moieties” (priority 1996, dated 2001).

Data set [1] is classed as physicochemical. Conditions: densitometer, GM3 adhered to a microplate; insufficient to detect influenza virus.
Data set [2] concerns influenza virus A/Aichi/2/68 (H3N2). The data set can be described thus: TLC/virus binding assay: binding activity of ganglioside to influenza virus.

Consider `O=C1OC2(c3ccc(O)cc3Oc3cc(O)ccc32)c2ccccc21` [GM3 fluorescein], for which the “fluorescence of virus-bound compound in hydrophobic conditions” value in data set [1] is given as “very weak fluorescence”.

Turning to `CCCCCCCCCCCCC/C=C/[C@@H](O)[C@H](CO[C@@H]1O[C@H](CO)[C@@H](O[C@@H]2O[C@H](CO[C@]3(C(=O)O)C[C@H](O)[C@@H](NC(C)=O)[C@H]([C@H](O)[C@H](O)CO)O3)[C@H](O)[C@H](O)[C@H]2O)[C@H](O)[C@H]1O)NC(=O)CCc1ccc(/C=C/C=C/C=C/c2ccccc2)cc1` [compound 3, O-(5-acetamide-3,5-dideoxy-D-glycero-α-D-galacto-2-nonuropyranosylonate)-(2→6)-O-(β-D-galactopyranosyl)-(1→4)-O-(β-D-glucopyranosyl)-(1→1)-(2S, 3R,4E)-2-(3-(p-(6-phenyl)1,3,5-hexatrienyl)phenylpropionamide)-4-octadecene-1,3-diol], the “sensitivity relative to conventional sialyl(α2-6)lactosylceramide” value in data set [2] was 4 times. Also, in data set [2] (6 nmol ganglioside spotted on TLC plate, reference point set equal to 100, FIG. 1), the “relative measurement intensity (response of densitometer at 620 nm minus response at 430 nm)” value was found to be 100%. In addition, the “detection of influenza virus (sensitivity)” value in data set [2] (TLC/virus binding assay, A/Aichi/2/68 (H3N2)) is “very high sensitivity”. Moreover, the “detection sensitivity relative to GM3” value in data set [2] (according to FIG. 1, A/Aichi/2/68 (H3N2)) is recorded as 12 times.
